PubChem BioAssay AID248 (DTP/NCI, 2004)
“And” between values parts separate entries of the source, which are not always exact repeats. Equal entries are not always repeated. Inconclusive results and toxic doses are left out. Cut-off read from the data, not from the text of the source: active = T/C of 150% or more; inactive = T/C below 125%.

Test system: L1210 leukemia ip in BDF1 mice, survival T/C
Assay: NCI In Vivo Anticancer Drug Screen. Data for tumor model L1210 Leukemia (intraperitoneal) in B6D2F1 (BDF1) mice
Conditions: endpoint: mean survival time, higher = longer survival
Method in brief: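 Tumor cells were implanted, animals were treated, and survival was followed. The result divides the treated measurement by the vehicle-control measurement.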

[1] = dose: 50.0 mg/kg/injection, schedule: Q04DX002 (ip), vehicle: Klucel (hydroxypropylcellulose) (HPC)
[2] = dose: 100.0 mg/kg/injection, schedule: Q04DX002 (ip), vehicle: Klucel (hydroxypropylcellulose) (HPC)
[3] = dose: 100.0 mg/kg/injection, schedule: Q04DX003 (ip), vehicle: saline with Tween-80
[4] = dose: 200.0 mg/kg/injection, schedule: Q04DX003 (ip), vehicle: saline with Tween-80
[5] = dose: 400.0 mg/kg/injection, schedule: Q04DX003 (ip), vehicle: saline with Tween-80
[6] = dose: 100.0 mg/kg/injection, schedule: Q01DX001 (ip), vehicle: saline
[7] = dose: 50.0 mg/kg/injection, schedule: Q01DX009 (ip), vehicle: saline with Tween-80
[8] = dose: 100.0 mg/kg/injection, schedule: Q01DX009 (ip), vehicle: saline with Tween-80
[9] = dose: 200.0 mg/kg/injection, schedule: Q04DX002 (ip), vehicle: Klucel (hydroxypropylcellulose) (HPC)
[10] = dose: 100.0 mg/kg/injection, schedule: Q04DX003 (ip), vehicle: Klucel (hydroxypropylcellulose) (HPC)
[11] = dose: 200.0 mg/kg/injection, schedule: Q04DX003 (ip), vehicle: Klucel (hydroxypropylcellulose) (HPC)
[12] = dose: 400.0 mg/kg/injection, schedule: Q01DX009 (ip), vehicle: saline with Tween-80
[13] = dose: 400.0 mg/kg/injection, schedule: Q04DX002 (ip), vehicle: Klucel (hydroxypropylcellulose) (HPC)
[14] = dose: 100.0 mg/kg/injection, schedule: Q01DX009 (ip), vehicle: Klucel (hydroxypropylcellulose) (HPC)
[15] = dose: 200.0 mg/kg/injection, schedule: Q01DX009 (ip), vehicle: Klucel (hydroxypropylcellulose) (HPC)

Measured: T/C

CCP(C)(C)=S
inactive: dose: 25.0 mg/kg/injection, schedule: Q04DX002 (ip), vehicle: Klucel (hydroxypropylcellulose) (HPC) 101 % of control | [1] 101 % of control | [2] 108 % of control

CSc1cc(C)c(O)c(CO)c1
inactive: dose: 100.0 mg/kg/injection, schedule: Q01DX009 (ip), vehicle: other 92 % of control | dose: 200.0 mg/kg/injection, schedule: Q01DX009 (ip), vehicle: other 97 % of control | dose: 400.0 mg/kg/injection, schedule: Q01DX009 (ip), vehicle: other 92 % of control

CC(=O)c1c(C)[nH]c2ccccc12
inactive: dose: 100.0 mg/kg/injection, schedule: Q01DX001 (ip), vehicle: saline with Tween-80 101 % of control | [3] 95 % of control | dose: 200.0 mg/kg/injection, schedule: Q01DX001 (ip), vehicle: saline with Tween-80 103 % of control | [4] 95 % of control | dose: 400.0 mg/kg/injection, schedule: Q01DX001 (ip), vehicle: saline with Tween-80 97 % of control | [5] 95 % of control

[O]=[Sb]([OH])([OH])[c]1ccccc1
inactive: dose: 12.5 mg/kg/injection, schedule: Q04DX002 (ip), vehicle: saline with Tween-80 100 % of control | dose: 25.0 mg/kg/injection, schedule: Q04DX002 (ip), vehicle: saline with Tween-80 100 % of control | dose: 50.0 mg/kg/injection, schedule: Q01DX009 (sc), vehicle: olive oil, sesame oil, peanut oil 97 % of control | dose: 50.0 mg/kg/injection, schedule: Q04DX002 (ip), vehicle: saline with Tween-80 103 % of control | dose: 100.0 mg/kg/injection, schedule: Q01DX009 (sc), vehicle: olive oil, sesame oil, peanut oil 95 % of control | dose: 100.0 mg/kg/injection, schedule: Q04DX002 (ip), vehicle: saline with Tween-80 90 % of control | dose: 100.0 mg/kg/injection, schedule: Q04DX003 (sc), vehicle: olive oil, sesame oil, peanut oil 97 % of control | dose: 200.0 mg/kg/injection, schedule: Q04DX003 (sc), vehicle: olive oil, sesame oil, peanut oil 93 % of control

COc1ccc(C2c3cc(OC)c(OC)c(S(N)(=O)=O)c3CC3C(=O)OCC32)cc1OC (stereo not given)
inactive: [6] 98 % of control | dose: 200.0 mg/kg/injection, schedule: Q01DX001 (ip), vehicle: saline 96 % of control | dose: 400.0 mg/kg/injection, schedule: Q01DX001 (ip), vehicle: saline 98 % of control

COc1cc(C=C(C#N)C#N)cc(I)c1O
inactive: dose: 25.0 mg/kg/injection, schedule: Q04DX003 (ip), vehicle: Klucel (hydroxypropylcellulose) (HPC) 98 % of control | dose: 50.0 mg/kg/injection, schedule: Q04DX003 (ip), vehicle: Klucel (hydroxypropylcellulose) (HPC) 104 % of control

O=[N+]([O-])c1cccc2cccnc12
inactive: dose: 50.0 mg/kg/injection, schedule: Q01DX001 (ip), vehicle: saline 107 % of control | [7] 95 % of control | [6] 107 % of control | [8] 93 % of control

CC(C)(C)N=C(N)N[N+](=O)[O-]
inactive: [1] 104 % of control | [2] 100 % of control | [9] 104 % of control

COC(=O)CCC(NC(=O)OCc1ccccc1)C(=O)O (stereo not given)
inactive: [10] 99 % of control | [11] 112 % of control

O=[N+]([O-])c1cc[n+]([O-])c(Br)c1
inactive: [8] 98 % of control | [3] 108 % of control | dose: 200.0 mg/kg/injection, schedule: Q01DX009 (ip), vehicle: saline with Tween-80 103 % of control | [4] 101 % of control | [12] 97 % of control | [5] 93 % of control

CC(=O)C(c1ccccc1)(c1ccccc1)c1ccccc1
inactive: [3] 96 % of control | [4] 93 % of control | [5] 91 % of control

CCCCCCCC(=O)Nc1cccc(O)c1
inactive: [3] 96 % of control | [4] 95 % of control | [5] 96 % of control

CCOc1ccccc1/C=C1\C=Nc2ccccc21
inactive: dose: 50.0 mg/kg/injection, schedule: Q01DX009 (ip), vehicle: carboxymethylcellulose (CMC) 92 % of control and 101 % of control | dose: 50.0 mg/kg/injection, schedule: Q04DX003 (ip), vehicle: carboxymethylcellulose (CMC) 96 % of control | dose: 100.0 mg/kg/injection, schedule: Q01DX009 (ip), vehicle: carboxymethylcellulose (CMC) 92 % of control and 93 % of control | dose: 100.0 mg/kg/injection, schedule: Q04DX002 (ip), vehicle: carboxymethylcellulose (CMC) 96 % of control and 99 % of control | dose: 100.0 mg/kg/injection, schedule: Q04DX003 (ip), vehicle: carboxymethylcellulose (CMC) 98 % of control | dose: 200.0 mg/kg/injection, schedule: Q01DX009 (ip), vehicle: carboxymethylcellulose (CMC) 89 % of control and 90 % of control | dose: 200.0 mg/kg/injection, schedule: Q04DX002 (ip), vehicle: carboxymethylcellulose (CMC) 89 % of control and 91 % of control | dose: 200.0 mg/kg/injection, schedule: Q04DX003 (ip), vehicle: carboxymethylcellulose (CMC) 100 % of control | dose: 400.0 mg/kg/injection, schedule: Q04DX002 (ip), vehicle: carboxymethylcellulose (CMC) 89 % of control

Cc1c2ccc3ccccc3c2c(C)[n+]2ccccc12
inactive: dose: 2.0 mg/kg/injection, schedule: Q01DX Z (ip), vehicle: carboxymethylcellulose (CMC) 122 % of control | dose: 4.0 mg/kg/injection, schedule: Q01DX Z (ip), vehicle: carboxymethylcellulose (CMC) 106 % of control | dose: 8.0 mg/kg/injection, schedule: Q01DX Z (ip), vehicle: carboxymethylcellulose (CMC) 93 % of control

CCOC(=O)Sc1nc2ccccc2[nH]1
inactive: dose: 75.0 mg/kg/injection, schedule: Q04DX003 (ip), vehicle: saline with Tween-80 101 % of control | dose: 150.0 mg/kg/injection, schedule: Q04DX003 (ip), vehicle: saline with Tween-80 98 % of control | dose: 300.0 mg/kg/injection, schedule: Q04DX003 (ip), vehicle: saline with Tween-80 87 % of control

O=C(O)C(=O)Cc1nnn(-c2ccccc2)c1-c1ccccc1
inactive: dose: 75.0 mg/kg/injection, schedule: Q01DX001 (ip), vehicle: acetone 95 % of control | dose: 150.0 mg/kg/injection, schedule: Q01DX001 (ip), vehicle: acetone 101 % of control | dose: 300.0 mg/kg/injection, schedule: Q01DX001 (ip), vehicle: acetone 95 % of control

CCCCCCCCCCCCCCCCCCNC(=O)Nc1ccccc1OC
inactive: [2] 101 % of control | [9] 107 % of control | [13] 96 % of control

Cc1cc([N+](=O)[O-])ccc1NC(=O)OCc1ccccc1
inactive: [2] 99 % of control | [9] 101 % of control | [13] 89 % of control

O=C(NNC(=O)OCc1ccccc1)OCc1ccccc1
inactive: [14] 104 % of control | [10] 97 % of control | [15] 113 % of control | [11] 97 % of control | dose: 400.0 mg/kg/injection, schedule: Q04DX003 (ip), vehicle: Klucel (hydroxypropylcellulose) (HPC) 97 % of control

O=C(Nc1ccc(Cl)c(Cl)c1)O/N=C/c1ccccn1
inactive: [7] 96 % of control | [8] 91 % of control and 92 % of control | [3] 95 % of control | [4] 90 % of control | [12] 91 % of control | [5] 91 % of control

Nc1ncnc2c1nnn2CCCCCC(=O)O
inactive: [3] 100 % of control | [4] 101 % of control | [5] 97 % of control

Cc1cc2c(cc1C)C(O)C(N1CCCCC1)CCC2 (stereo not given)
inactive: [3] 100 % of control | [4] 92 % of control | [5] 90 % of control

CCN(CC)c1ccc(S(=O)(=O)NC(=O)OC)cc1
inactive: [2] 98 % of control | [9] 112 % of control | [13] 112 % of control

C=C(C)C1Cc2c(ccc3c(=O)c4c(oc23)COc2cc(OC)c(OC)cc2-4)O1 (stereo not given)
inactive: [14] 90 % of control | [15] 93 % of control | dose: 400.0 mg/kg/injection, schedule: Q01DX009 (ip), vehicle: Klucel (hydroxypropylcellulose) (HPC) 95 % of control

CC1(c2ccc3ccccc3c2)OCC2(CCCCC2)CO1
inactive: [1] 93 % of control | [2] 100 % of control | [9] 100 % of control | [13] 96 % of control and 97 % of control

C1=C(N2CCOCC2)CCCCC1
inactive: dose: 100.0 mg/kg/injection, schedule: Q01DX009 (ip), vehicle: saline 108 % of control | dose: 200.0 mg/kg/injection, schedule: Q01DX009 (ip), vehicle: saline 109 % of control | dose: 400.0 mg/kg/injection, schedule: Q01DX009 (ip), vehicle: saline 108 % of control
